Measured values reported in patent US20040209799A1, “JAK/STAT pathway inhibitors and the uses thereof” (priority 2000, published 2004).

Columns and labels:
JAK3 = biological target: T1, JAK3 (Homo sapiens, UniProt P52333); details: cited from earlier work
T1 sequence (P52333 1-1124): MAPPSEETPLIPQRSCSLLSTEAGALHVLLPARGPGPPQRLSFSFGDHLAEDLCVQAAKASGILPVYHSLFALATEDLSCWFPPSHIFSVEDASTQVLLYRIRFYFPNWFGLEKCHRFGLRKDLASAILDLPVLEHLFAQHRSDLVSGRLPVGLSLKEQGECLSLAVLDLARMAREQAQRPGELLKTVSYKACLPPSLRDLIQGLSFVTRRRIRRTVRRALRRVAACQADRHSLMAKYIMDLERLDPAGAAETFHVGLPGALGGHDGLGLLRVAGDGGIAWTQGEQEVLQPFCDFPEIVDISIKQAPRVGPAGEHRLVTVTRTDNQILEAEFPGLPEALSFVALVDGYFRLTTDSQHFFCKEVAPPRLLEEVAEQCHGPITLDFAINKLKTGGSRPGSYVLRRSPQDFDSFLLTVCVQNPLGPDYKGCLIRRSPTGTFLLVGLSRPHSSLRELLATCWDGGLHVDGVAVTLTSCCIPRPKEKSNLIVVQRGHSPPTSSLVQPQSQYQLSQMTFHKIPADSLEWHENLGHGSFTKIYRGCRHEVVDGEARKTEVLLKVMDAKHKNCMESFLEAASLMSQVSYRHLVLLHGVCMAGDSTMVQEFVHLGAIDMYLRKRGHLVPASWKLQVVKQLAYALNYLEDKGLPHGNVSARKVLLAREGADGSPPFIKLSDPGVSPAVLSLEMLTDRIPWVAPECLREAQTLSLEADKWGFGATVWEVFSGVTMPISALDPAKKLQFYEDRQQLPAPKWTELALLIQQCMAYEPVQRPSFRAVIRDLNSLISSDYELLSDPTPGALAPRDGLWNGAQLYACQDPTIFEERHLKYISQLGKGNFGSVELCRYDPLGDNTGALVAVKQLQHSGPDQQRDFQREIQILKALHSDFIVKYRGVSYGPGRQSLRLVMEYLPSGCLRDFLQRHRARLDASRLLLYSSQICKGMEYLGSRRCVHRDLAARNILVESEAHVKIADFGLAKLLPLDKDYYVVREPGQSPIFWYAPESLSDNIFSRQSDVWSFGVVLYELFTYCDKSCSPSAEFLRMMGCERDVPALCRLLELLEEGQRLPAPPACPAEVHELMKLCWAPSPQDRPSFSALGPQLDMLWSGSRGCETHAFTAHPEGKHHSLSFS

chondrocytes = details: in vitro; cited from earlier work
[1] = biological target: BTK (Bruton's agarnrnaglobulinaemia tyrosine kinase) (Homo sapiens, UniProt Q06187); assay: poly (Glu, Tyr) 4:1 ELISA, BTK; type: biochemical; details: ec-50 values ranging from hundreds of micromolar to no inhibition (data not shown)
Sequence of BTK (Bruton's agarnrnaglobulinaemia tyrosine kinase) (Q06187 whole entry, species assumed): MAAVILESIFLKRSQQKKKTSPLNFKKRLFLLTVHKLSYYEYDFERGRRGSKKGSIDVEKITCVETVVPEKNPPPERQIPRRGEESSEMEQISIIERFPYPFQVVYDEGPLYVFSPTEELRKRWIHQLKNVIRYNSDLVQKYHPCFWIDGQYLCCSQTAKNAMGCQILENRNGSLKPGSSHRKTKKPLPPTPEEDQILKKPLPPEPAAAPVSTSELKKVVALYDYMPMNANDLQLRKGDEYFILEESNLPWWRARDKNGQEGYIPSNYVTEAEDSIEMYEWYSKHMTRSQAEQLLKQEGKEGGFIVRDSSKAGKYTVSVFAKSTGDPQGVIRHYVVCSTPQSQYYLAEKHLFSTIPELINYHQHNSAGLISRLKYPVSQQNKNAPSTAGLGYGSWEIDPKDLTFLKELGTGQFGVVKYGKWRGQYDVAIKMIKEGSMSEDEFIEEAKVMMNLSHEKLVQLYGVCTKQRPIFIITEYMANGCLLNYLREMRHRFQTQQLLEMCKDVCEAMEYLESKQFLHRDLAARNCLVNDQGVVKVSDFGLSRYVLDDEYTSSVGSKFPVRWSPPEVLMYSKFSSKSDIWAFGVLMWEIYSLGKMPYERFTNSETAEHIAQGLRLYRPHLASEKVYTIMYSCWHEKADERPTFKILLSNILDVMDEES
Method: (§1) To further examine the inhibition characteristics of DBH (and its variants) to a variety of cellular components, a poly (Glu, Tyr) 4:1 ELISA was performed. Hymenialdisine (H), DBH (as marine sponge extracts: see Chipman and Faulkner, 1997), and three variant forms of synthetic DBH: the free base form of DBH (DBH-2FB), a trifluoroacetic acid salt form of DBH (DBH-2S), and a methanesulfonic acid salt form of DBH (DBH 1) were solubilized in DMSO, and tested for the ability to inhibit; ZAP-70 (ζ-associated polypeptide of 70 kDa) protein tyrosine kinase, BTK (Bruton's agarnrnaglobulinaemia tyrosine kinase), JAK3 (Janus kinase 3) protein tyrosine kinase, LCK (Lymphoid T-cell protein tyrosine kinase), and IGFR (Insulin-like growth factor receptor) protein tyrosine kinase.
(§2) Maxisorb microtiter plates (Nalge Nunc International, Rochester, N.Y.) were coated with 1 mg/ml Poly(Glu,Tyr) 4:1 (Sigma, St. Louis, Mo.) solubilized in phosphate buffered saline (PBS), 0.02% sodium azide. On the day of the assay, microtiter plates were washed 4× with TBS-Tween (25 mM Tris pH 8.0, 150 mM NaCl, 0.05% Tween 20) using a Skatron plate washer (Skatron Instruments, Sterling, Va.). 200 μl of sterile blocking buffer (3% BSA in PBS, 0.02% sodium azide) was added to each well, and the microtiter plates were incubated at 37° C. for 1 hour. The blocking buffer was removed, the plates washed, and various concentrations of inhibitor were added in a 20 μl volume to the wells. 60 μl of the appropriate substrate mix was then added. Substrate mixes were prepared as described in Table 2:
(§3) Following addition of the substrate mix, 20 μl of the test protein tyrosine kinase (in 1× assay buffer) was added. Kinase reactions were incubated 30 min at 37° C., followed by washes in the Skatron plate washer. 100 μl of biotinylated PT-66 anti-phosphotyrosine monoclonal antibody (Sigma, St. Louis, Mo.) (diluted 1:4000 in 0.5% BSA, sterile-filtered TBS) was added to each well, and incubated for an additional 30 minutes at 37° C. […] The samples were then read at 450 nm in a plate reader.

[2] = biological target: T2, JAK3 (Janus kinase 3) protein tyrosine kinase (Homo sapiens, UniProt P52333); assay: poly (Glu, Tyr) 4:1 ELISA, JAK3; type: biochemical; details: inhibitors solubilized in DMSO, read-out: ec-50 (effective concentration for 50% inhibition) of JAK3
T2 sequence (P52333 1-1124): T1 sequence (P52333 1-1124)
Method: as §1, §2, §3

[3] = biological target: LCK (Lymphoid T-cell protein tyrosine kinase) (Homo sapiens, UniProt P06239); assay: poly (Glu, Tyr) 4:1 ELISA, LCK; type: biochemical; details: ec-50 values ranging from hundreds of micromolar to no inhibition (data not shown)
Sequence of LCK (Lymphoid T-cell protein tyrosine kinase) (P06239 whole entry, species assumed): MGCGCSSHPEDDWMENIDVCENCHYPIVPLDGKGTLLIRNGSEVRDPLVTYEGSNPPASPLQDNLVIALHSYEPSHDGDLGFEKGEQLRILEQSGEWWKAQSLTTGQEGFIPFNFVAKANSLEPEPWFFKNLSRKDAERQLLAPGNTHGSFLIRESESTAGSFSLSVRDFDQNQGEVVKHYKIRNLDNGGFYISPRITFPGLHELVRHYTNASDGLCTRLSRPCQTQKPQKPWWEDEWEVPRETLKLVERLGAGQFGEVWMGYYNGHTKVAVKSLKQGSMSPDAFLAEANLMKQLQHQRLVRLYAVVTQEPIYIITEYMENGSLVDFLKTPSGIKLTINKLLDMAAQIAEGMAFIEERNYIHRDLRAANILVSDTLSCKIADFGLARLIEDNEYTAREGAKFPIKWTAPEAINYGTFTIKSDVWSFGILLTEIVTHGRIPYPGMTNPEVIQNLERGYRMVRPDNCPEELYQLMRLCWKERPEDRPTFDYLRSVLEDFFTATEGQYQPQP
Method: as §1, §2, §3

[4] = tested on: chondrocytes in culture and explants of articular cartilage; details: cited from earlier work
[5] = biological target: IGFR (Insulin-like growth factor receptor) protein tyrosine kinase (Homo sapiens, UniProt P08069); assay: poly (Glu, Tyr) 4:1 ELISA, IGFR; type: biochemical; details: ec-50 values ranging from hundreds of micromolar to no inhibition (data not shown)
Sequence of IGFR (Insulin-like growth factor receptor) protein tyrosine kinase (P08069 31-1367): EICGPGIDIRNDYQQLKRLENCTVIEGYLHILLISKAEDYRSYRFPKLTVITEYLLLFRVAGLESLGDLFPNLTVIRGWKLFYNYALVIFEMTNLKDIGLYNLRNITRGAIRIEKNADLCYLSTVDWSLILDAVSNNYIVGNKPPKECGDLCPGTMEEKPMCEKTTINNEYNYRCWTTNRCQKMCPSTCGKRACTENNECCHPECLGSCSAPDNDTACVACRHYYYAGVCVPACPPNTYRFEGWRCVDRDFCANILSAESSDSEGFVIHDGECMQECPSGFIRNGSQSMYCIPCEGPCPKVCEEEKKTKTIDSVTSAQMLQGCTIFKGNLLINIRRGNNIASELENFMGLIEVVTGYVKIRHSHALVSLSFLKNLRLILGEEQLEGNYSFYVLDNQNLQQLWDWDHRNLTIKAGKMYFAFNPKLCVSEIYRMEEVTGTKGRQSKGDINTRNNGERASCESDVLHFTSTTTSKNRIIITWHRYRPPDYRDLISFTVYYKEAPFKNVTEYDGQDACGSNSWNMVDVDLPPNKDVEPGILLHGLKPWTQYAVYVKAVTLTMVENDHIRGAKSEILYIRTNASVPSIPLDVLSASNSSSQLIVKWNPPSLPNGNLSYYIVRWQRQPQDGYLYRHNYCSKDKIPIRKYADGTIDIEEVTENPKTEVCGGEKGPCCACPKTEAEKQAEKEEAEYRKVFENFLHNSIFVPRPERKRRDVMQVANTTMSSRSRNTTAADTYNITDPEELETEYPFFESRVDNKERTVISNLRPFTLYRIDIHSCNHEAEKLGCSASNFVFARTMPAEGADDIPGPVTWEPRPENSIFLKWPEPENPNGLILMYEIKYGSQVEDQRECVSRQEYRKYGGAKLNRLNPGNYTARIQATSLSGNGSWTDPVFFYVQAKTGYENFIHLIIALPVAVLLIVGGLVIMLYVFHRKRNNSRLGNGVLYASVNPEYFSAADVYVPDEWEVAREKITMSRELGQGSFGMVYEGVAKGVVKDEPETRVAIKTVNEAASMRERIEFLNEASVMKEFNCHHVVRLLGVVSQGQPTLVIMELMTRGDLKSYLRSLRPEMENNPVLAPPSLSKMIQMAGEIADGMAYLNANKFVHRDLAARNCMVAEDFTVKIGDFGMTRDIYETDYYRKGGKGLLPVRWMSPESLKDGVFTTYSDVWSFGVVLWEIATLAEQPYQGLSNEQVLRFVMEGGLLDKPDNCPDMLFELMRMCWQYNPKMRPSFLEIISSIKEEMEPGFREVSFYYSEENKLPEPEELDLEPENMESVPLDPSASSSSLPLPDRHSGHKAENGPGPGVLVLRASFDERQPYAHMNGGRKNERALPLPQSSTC
Method: as §1, §2, §3

[6] = biological target: T3, ZAP-70 (ζ-associated polypeptide of 70 kDa) protein tyrosine kinase (Homo sapiens, UniProt P43403); assay: poly (Glu, Tyr) 4:1 ELISA, ZAP-70; type: biochemical; details: ec-50 values ranging from hundreds of micromolar to no inhibition (data not shown)
T3 sequence (P43403 1-619): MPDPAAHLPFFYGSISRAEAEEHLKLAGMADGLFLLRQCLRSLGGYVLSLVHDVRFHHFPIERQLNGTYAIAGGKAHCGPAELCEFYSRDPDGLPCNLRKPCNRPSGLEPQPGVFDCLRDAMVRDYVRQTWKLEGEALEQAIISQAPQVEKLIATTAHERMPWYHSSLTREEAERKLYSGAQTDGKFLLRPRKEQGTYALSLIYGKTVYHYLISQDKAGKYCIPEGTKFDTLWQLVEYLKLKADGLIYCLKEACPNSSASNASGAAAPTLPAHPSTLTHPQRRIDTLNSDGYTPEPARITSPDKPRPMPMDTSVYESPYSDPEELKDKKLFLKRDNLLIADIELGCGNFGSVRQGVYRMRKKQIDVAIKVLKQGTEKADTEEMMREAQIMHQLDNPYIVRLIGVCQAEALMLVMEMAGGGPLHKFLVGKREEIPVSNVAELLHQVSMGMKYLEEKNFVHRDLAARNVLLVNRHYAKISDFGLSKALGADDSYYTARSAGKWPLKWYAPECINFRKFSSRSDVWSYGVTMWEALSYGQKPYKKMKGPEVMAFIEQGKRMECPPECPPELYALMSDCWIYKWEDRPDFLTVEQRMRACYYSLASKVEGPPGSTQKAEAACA
Method: as §1, §2, §3

JAK3 mRNA = assay: northern blot analysis of JAK3 expression in human articular chondrocytes; type: cell-based; details: 2 ng/ml for 24 hours, normal adult human articular chondrocytes in monolayer
Method: Frozen chondrocyte cell strain HC30-0198 (normal human articular chondrocytes prepared as described in Example 1) was thawed, cultured in monolayer (second passage), and cultured to 5 days post confluence. Test cultures were rinsed in phosphate buffered saline (PBS), followed by addition of either; 1) recombinant human interleukin-1β (rhIL-1β) (R&D Systems, Minneapolis, Minn.) at 2 ng/ml for 24 hours in serum-free DMEM containing 1% antibiotic solution, or 2) serum-free DMEM containing 1% antibiotic solution only (control).
RNA on the Northern blot was fixed to the membrane by using a Stratalinker® 1800 UV Crosslinker (Stratagene, La Jolla, Calif.).
A 109-base pair human cDNA for JAK3 was generated by RT-PCR (see Example 2 above).
Prehybridization and hybridization of the Northern blot was performed at 42° C. using a 1:1 dilution of 2× Prehybridization/Hybridization Solution (GIBCO/BRL, Gaithersburg, Md.) and formamide. After 15 hours of hybridization using the JAK3 DNA probe, the blot was successively washed two times in 2×SSC/0.1% SDS (15 minutes/wash at room temperature), and two times in 0.5×SSC/0.1% SDS (30 minutes/wash at 65° C.). The blot was allowed to air dry, and the radioactive signal was visualized using a Fujifilm BAS-1500 phosphorimager (Fuji Medical Systems, USA, Stamford, C1).

COc1cc(C(N)=O)c([N+](=O)[O-])cc1OC [4,5-dimethoxy-2-nitrobenzamide]
inhibition of JAK3 (JAK3): specifically inhibit

COc1cc(C(=O)O)c([N+](=O)[O-])cc1OC [4,5-dimethoxy-2-nitrobenzoic acid]
inhibition of JAK3 (JAK3): specifically inhibit

O=C1NC(=O)c2cc(Nc3ccccc3)c(Nc3ccccc3)cc21 [DAPH, 4,5-dianilinophthalimide]
effect on cartilage degradation by chondrocytes (chondrocytes): reduce or prevent

NC1=NC(=O)C(=C2CCNC(=O)c3[nH]c(Br)cc32)N1 [H, 4-(2-amino-4-oxo-2-imidazolin-5-ylidene)-2-bromo-4,5,6,7-tetrahydropyrrolo (2,3-c) azepine-8-one]
Inhibition of BTK [1]: weak
EC50 [2]: 2.6 to 10.7 µM
Inhibition of LCK [3]: weak
inhibition of IL-1 induced degradation of glycosaminoglycan and extracellular matrix [4]: inhibit
Inhibition of IGFR [5]: weak
Inhibition of ZAP-70 [6]: weak

O=c1c(-c2ccc(O)cc2)coc2cc(O)cc(O)c12 [genistein]
effect on cartilage degradation by chondrocytes (chondrocytes): reduce or prevent

CO[C@H]1[C@@H](OC)C[C@H](C)[C@@H](OC)C2=CC(=O)C=C(NC(=O)/C(C)=C/C=C\[C@H](OC)[C@@H](OC(N)=O)/C(C)=C/[C@@H]1C)C2=O [herbimycin A]
effect on cartilage degradation by chondrocytes (chondrocytes): reduce or prevent

N#CC(C#N)=Cc1cc(O)c(O)c(O)c1 [tyrphostin AG 82]
effect on cartilage degradation by chondrocytes (chondrocytes): reduce or prevent

N#C/C(=C\c1ccc(O)c(O)c1)C(=O)NCCCCc1ccccc1 [tyrphostin AG 556]
effect on cartilage degradation by chondrocytes (chondrocytes): reduce or prevent

rhIL-1β: recombinant human interleukin-1β (R&D Systems)
effect on the level of JAK3 mRNA (JAK3 mRNA): neither increases nor decreases
